Experimental data published in PMC4237480, “Cytochrome P450 induction properties of food and herbal-derived compounds using a novel multiplex RT-qPCR in vitro assay, a drug–food interaction prediction tool” (Food Science & Nutrition, 2014).

Legend:
CYP2C9 [1] = tested on: CYP2C9; set-up: method as in Pekthong et al. ([2008]); conditions: human microsomes; ref Pekthong et al. ([2008]); cited from earlier work
CYP1A2 [2] = tested on: CYP1A2; set-up: method as in Pekthong et al. [2009]; conditions: human hepatocytes; ref Pekthong et al. [2009]; cited from earlier work
CYP1A2 [3] = tested on: CYP1A2; set-up: method as in Pekthong et al. ([2008]); conditions: human microsomes; ref Pekthong et al. ([2008]); cited from earlier work
CYP2D6 [4] = assay: western blot analysis, CYP2D6 protein expression in HepG2 cells; format: in vitro ADME, human; conditions: for effect on CYP2D6 protein expression: HepG2 cells, 48 h, western blot densitometry normalized to β-actin, vs DMSO control
CYP3A4 [5] = assay: western blot analysis, CYP3A4 protein expression in HepG2 cells; conditions: for effect on CYP3A4 protein expression: HepG2 cells, 48 h, western blot densitometry normalized to β-actin, vs DMSO control
CYP3A4 [6] = tested on: CYP3A4; set-up: method as in Pekthong et al. ([2008]); conditions: human microsomes; ref Pekthong et al. ([2008]); cited from earlier work
2C9 = tested on: 2C9; set-up: method as in Pekthong et al. [2009]; conditions: human hepatocytes; ref Pekthong et al. [2009]; cited from earlier work
3A4 = tested on: 3A4; set-up: method as in Pekthong et al. [2009]; conditions: human hepatocytes; ref Pekthong et al. [2009]; cited from earlier work
CYP1A2 [7] = assay: multiplex RT-qPCR, CYP1A2 mRNA expression in HepG2 cells; conditions: for concentration from which CYP1A2 mRNA induction was detected/observed: not necessarily statistically significant; for concentration with statistically significant CYP1A2 mRNA induction: P < 0.05 vs control
CYP1A2 [8] = assay: western blot analysis, CYP1A2 protein expression in HepG2 cells; format: in vitro ADME, human; conditions: for effect on CYP1A2 protein expression: HepG2 cells, 48 h, western blot densitometry normalized to β-actin, vs DMSO control
Protocol: All compounds were diluted with concentrated DMSO.

CYP1A2 [9] = tested on: CYP1A2; set-up: method as in Wen et al. [2002]; conditions: 48 h exposure, cultured human hepatocytes; ref Wen et al. [2002]; cited from earlier work
CYP3A4 [10] = tested on: CYP3A4; set-up: method as in Graber-Maier et al. [2010]; conditions: intestinal cells; ref Graber-Maier et al. [2010]; cited from earlier work
CYP2D6 [11] = assay: multiplex RT-qPCR, CYP2D6 mRNA expression in HepG2 cells; conditions: concomitant furafylline and omeprazole, control treated with omeprazole
CYP3A4 [12] = assay: multiplex RT-qPCR, CYP3A4 mRNA expression in HepG2 cells
[13] = tested on: PXR-responsive genes like CYP3A4; set-up: method as in Ruhl et al. [2004]; conditions: HepG2 cells; ref Ruhl et al. [2004]; cited from earlier work
[14] = tested on: cytochrome P450 (CYP) 3A4; set-up: method as in Sunaga et al. [2012]; conditions: ref Sunaga et al. [2012]; cited from earlier work
CYP3A4 [15] = tested on: CYP3A4; set-up: method as in Chow et al. [2010]; conditions: healthy subjects; ref Chow et al. [2010]; cited from earlier work
CYP2C9 [16] = tested on: CYP2C9; set-up: method as in Chow et al. [2010]; conditions: healthy subjects; ref Chow et al. [2010]; cited from earlier work
CYP2D6 [17] = tested on: CYP2D6; set-up: method as in Chow et al. [2010]; conditions: healthy subjects; ref Chow et al. [2010]; cited from earlier work
CYP1A2 [18] = tested on: CYP1A2; set-up: method as in Chow et al. [2010]; conditions: healthy subjects, ref Chow et al. [2010], cited from earlier work
[19] = HepG2, concomitant furafylline and omeprazole, control treated with omeprazole

C=C1CC[C@@H]2[C@](C)(CO)[C@H](O)CC[C@@]2(C)[C@@H]1C/C=C1/C(=O)OC[C@H]1O [andrographolide]
IC50 (CYP2C9 [1]): > 100 µM
mRNA expression of CYP1A2 (CYP1A2 [2]): decrease
IC50 (CYP1A2 [3]): > 100 µM
effect on CYP2D6 protein expression (CYP2D6 [4]): up-regulated
mean up-regulation of the CYP2D6 protein (CYP2D6 [4]; all concentrations tested, HepG2, 48 h): less than twofold changes
effect on CYP3A4 protein expression (CYP3A4 [5]): did not affect
mRNA expression of CYP2C9 (2C9): decrease
mRNA expression of CYP3A4 (3A4): decrease

CC(C)=CCC/C(C)=C/COc1c2ccoc2cc2oc(=O)ccc12 [bergamottin]
CYP1A2 mRNA induction (CYP1A2 [7]; 1 μmol/L, HepG2, 48 h, Ct 33 assumed for untreated control): ~11 fold increase
concentration from which CYP1A2 mRNA induction was detected/observed (CYP1A2 [7]; HepG2, 48 h): ≥ 1000 nM
effect on CYP2D6 protein expression (CYP2D6 [4]): did not affect
effect on CYP3A4 protein expression (CYP3A4 [5]): did not affect
effect on CYP1A2 protein expression (CYP1A2 [8]): only a slight induction
levels of CYP1A2 protein and mRNA (CYP1A2 [9]): increased levels

COc1cc(/C=C/C(=O)CC(=O)/C=C/c2ccc(O)c(OC)c2)ccc1O [curcumin]
mRNA expression of CYP3A4 (CYP3A4 [10]): did not affect
effect on CYP2D6 protein expression (CYP2D6 [4]): does not affect significantly
effect on CYP3A4 protein expression (CYP3A4 [5]): significant induction

Cc1nc2c([nH]1)c(=O)n(C)c(=O)n2Cc1ccco1 [furafylline]
CYP2D6 mRNA expression, furafylline with omeprazole (CYP2D6 [11]): no significant changes
CYP1A2 mRNA expression in omeprazole-induced cells (CYP1A2 [7]; HepG2, furafylline 2 h before omeprazole, concomitant treatment, compared with omeprazole-treated cells (control)): significantly reduced
CYP2D6 protein expression, furafylline with omeprazole (CYP2D6 [4]; [19]): no significant changes
CYP3A4 mRNA expression, furafylline with omeprazole (CYP3A4 [12]; [19]): no significant changes
CYP3A4 protein expression, furafylline with omeprazole (CYP3A4 [5]; [19]): no significant changes
CYP1A2 protein expression in omeprazole-induced cells (CYP1A2 [8]; [19]): reduction was statistically insignificant

CC(=O)N1CCN(c2ccc(OCC3COC(Cn4ccnc4)(c4ccc(Cl)cc4Cl)O3)cc2)CC1 (centres unmarked) [ketoconazole, reference compound]
effect on CYP3A4 protein expression (CYP3A4 [5]): differences were not proved to be significant

CC(C)=CCC/C(C)=C/C=C/C(C)=C/C=C/C(C)=C/C=C/C=C(C)/C=C/C=C(C)/C=C/C=C(\C)CCC=C(C)C [lycopene]
activation potential on PXR-responsive genes like CYP3A4 [13]: no activation potential
inhibition of CYP3A4-mediated drug metabolism [14]: does not inhibit
effect on CYP2D6 protein expression (CYP2D6 [4]): did not appear to have any effects
effect on CYP3A4 protein expression (CYP3A4 [5]): did not appear to have any effects

COc1ccc2[nH]c([S+]([O-])Cc3ncc(C)c(OC)c3C)nc2c1 (centres unmarked) [omeprazole]
CYP1A2 mRNA up-regulation (CYP1A2 [7]; 10 μmol/L, HepG2, 48 h, Ct 33 assumed for untreated control): 24 fold changes
concentration with statistically significant CYP1A2 mRNA induction (CYP1A2 [7]; HepG2, 48 h): ≥ 10000 nM
concentration from which CYP1A2 mRNA induction was detected/observed (CYP1A2 [7]; HepG2, 48 h): ≥ 1000 nM
effect on CYP2D6 protein expression (CYP2D6 [4]): no effects
CYP3A4 mRNA induction (CYP3A4 [12]; 0.1 μmol/L, HepG2, 48 h): < 1.5 fold change
concentration with significant CYP3A4 mRNA induction (CYP3A4 [12]; HepG2, 48 h, P < 0.05 vs control): 100 nM
effect on CYP1A2 protein expression (CYP1A2 [8]): statistically insignificant

Oc1ccc(/C=C/c2cc(O)cc(O)c2)cc1 [resveratrol]
phenotypic index of CYP3A4 (CYP3A4 [15]): inhibit
phenotypic index of CYP2C9 (CYP2C9 [16]): inhibit
concentration with statistically significant CYP1A2 mRNA induction (CYP1A2 [7]; HepG2, 48 h): 50000 nM
concentration from which CYP1A2 mRNA induction was detected/observed (CYP1A2 [7]; HepG2, 48 h): ≥ 100 nM
CYP2D6 protein induction, average (CYP2D6 [4]; 0.1 μmol/L, HepG2, 48 h): more than twofold changes
effect on CYP2D6 protein expression (CYP2D6 [4]): statistically significant CYP2D6 protein induction
effect on CYP1A2 protein expression (CYP1A2 [8]): insignificant
phenotypic index of CYP2D6 (CYP2D6 [17]): inhibit
decrease in the caffeine/paraxanthine metabolic ratio (CYP1A2 [18]; 4 weeks of 1 g daily): 16%
phenotypic index of CYP1A2 (CYP1A2 [18]): induces

O=c1cc(-c2ccccc2)oc2ccc3ccccc3c12 [β-naphthoflavone]
IC50 (CYP1A2 [3]): 0.085 µM
CYP1A2 mRNA up-regulation (CYP1A2 [7]; 5 μmol/L, HepG2, 48 h, estimated, Ct 33 assumed for untreated control): more than sixfold change
CYP1A2 mRNA up-regulation (CYP1A2 [7]; 50 μmol/L, HepG2, 48 h, estimated, Ct 33 assumed for untreated control): 26 fold change
concentration from which CYP1A2 mRNA induction was detected/observed (CYP1A2 [7]; HepG2, 48 h): ≥ 5000 nM
effect on CYP2D6 protein expression (CYP2D6 [4]): remained either unchanged or there were slight changes that were statistically insignificant
effect on CYP3A4 protein expression (CYP3A4 [5]): remained either unchanged or there were slight changes that were statistically insignificant
concentration with significantly higher CYP1A2 protein (mean relative intensity) (CYP1A2 [8]; HepG2, 48 h, western blot): ≥ 5000 nM
effect on CYP1A2 protein expression (CYP1A2 [8]): significantly higher
